Reference: patent publication US12116388B2, “Amylin receptor agonists” (Novo Nordisk A/S, priority 2022, dated 2024)
Starred links: 1 amine or outer side, 2 acyl side, 3 side chain; linkers in the order of their positions; H or OH if unused. Residues, ends and D or L forms follow the SMILES beside them. *: point of attachment. C20 diacid = O=C(O)CCCCCCCCCCCCCCCCCCC(=O)*; γGlu = O=C(O)[C@H](CCC(=O)[*:2])N[*:1]

Tests used:
[1] = target: T1, human calcitonin receptor (hCTR) (Homo sapiens, UniProt P30988); assay: Human calcitonin receptor (hCTR) in vitro potency assay, CRE-luciferase reporter in BHK cells; assay type: cell-based; details: BHK hCTR/CRE-Luc cells, 3 hours incubation, assay buffer with 1% ovalbumin; read-out: hCalcR potency, EC50
T1 construct: host or cells: BHK (Baby Hamster Kidney), Hollex-1 cell line
T1 sequence (P30988 25-474): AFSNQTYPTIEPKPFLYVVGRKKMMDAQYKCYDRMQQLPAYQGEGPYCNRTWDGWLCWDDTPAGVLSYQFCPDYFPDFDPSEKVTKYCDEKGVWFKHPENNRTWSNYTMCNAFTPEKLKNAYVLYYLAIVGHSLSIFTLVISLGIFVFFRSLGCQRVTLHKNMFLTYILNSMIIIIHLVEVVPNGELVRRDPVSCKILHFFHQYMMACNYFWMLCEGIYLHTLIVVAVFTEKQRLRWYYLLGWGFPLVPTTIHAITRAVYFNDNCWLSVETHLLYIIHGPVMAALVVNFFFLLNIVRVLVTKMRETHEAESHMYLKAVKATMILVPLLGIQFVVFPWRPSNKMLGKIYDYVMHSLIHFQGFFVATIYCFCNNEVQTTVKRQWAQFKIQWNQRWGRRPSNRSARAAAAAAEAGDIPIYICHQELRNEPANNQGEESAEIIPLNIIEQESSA
Excerpt: (§1) Activation of hCTR leads to increased cellular concentrations of CAMP. Consequently, transcription is activated by promotors containing multiple copies of the CAMP response element (CRE). It is thus possible to measure hCTR activity using a CRE-luciferase reporter gene introduced into Baby Hamster Kidney (BHK) cells co-expressing the hCTR.
(§2) A BHK cell line was stably transfected with the human calcitonin receptor (a) and a CRE-responsive luciferase (CRE-Luc) reporter gene according to methods known to the person skilled in the art (Hollex-1 cell line, obtained from Zymogenetics described in U.S. Pat. No. 5,622,839).
(§3) Cells stocks were prepared by culturing of the stably transfected BHK hCTR/CRE-Luc cell line in growth medium consisting of DMEM (Gibco, 31966-021) supplemented with 10% FBS (Gibco, 16140-071), 1% Pen/Strep (Gibco, 15140-122), 0.5 mg/mL Geneticin (Gibco, 10131-027) and 250 nM Methotrexate (Sigma, A6770). Cells at approximately 80-90% confluence were washed once with PBS (Gibco 14190-094) and loosened from the cell flasks with Versene (Gibco, 15040-033) or TrypLE™ (Gibco, 12605-010). After centrifugation, the cell pellet was dissolved and diluted to approximately 2.5×10E6 cells/mL in Recovery™ Cell Culture Freezing Medium (Gibco, 12648-010). Cells were aliquoted and stored at −180° C. until use.
(§4) The assay buffer consisted of DMEM without phenol red (Gibco, 11880-028) supplemented with 1× GlutaMAX (Gibco, 35050-038), 10 mM HEPES (Gibco, 15630-056) and 1% (w/v) ovalbumin (Sigma, A5503).
(§5) To perform the assay, BHK hCTR/CRE-Luc cells were thawed, washed once in PBS and seeded in 40 μL growth medium in a white 384-well culture plate (PerkinElmer, 6007688) at a cell density of 4.000 cells/well on the day before the experiment. The plate was incubated over night at 37° C. in 5% CO2. On the day of the assay, cells were washed once in assay buffer. Serial dilutions (7-fold dilutions, 7 concentrations Pr. compound and one well containing only assay buffer) of comparator compounds and amylin analogues were performed in assay buffer often starting from approximately 10 nM in 96-well plates and 30 μL of each concentration added to the 384-well assay plate with cells. The assay plate was incubated for 3 hours at 37° C. in 5% CO2 after which 30 μL SteadyLite Plus (PerkinElmer, 6066759) was added to each well. The assay plate was sealed, incubated at room temperature with gentle shaking for 5 minutes followed by 30 minutes incubation without shaking while protected from light. Luminescence was detected on a luminescence plate reader e.g. a Synergy 2 (BioTek).

[2] = target: T2, human amylin receptor (hAMYR3) (Homo sapiens, UniProt O60896+P30988); assay: Human amylin receptor (hAMYR3) in vitro potency assay, CRE-luciferase reporter in BHK cells; assay type: cell-based; details: BHK hAMYR3/CRE-Luc cells, 3 hours incubation, assay buffer with 1% ovalbumin
T2 construct: host or cells: BHK (Baby Hamster Kidney), Hollex-1 cell line further transfected with RAMP3
T2 sequence (O60896 24-148, one chain of several): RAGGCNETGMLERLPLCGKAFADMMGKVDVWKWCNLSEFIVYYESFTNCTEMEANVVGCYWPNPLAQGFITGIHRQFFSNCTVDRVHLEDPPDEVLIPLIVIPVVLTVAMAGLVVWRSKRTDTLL
Excerpt: as §1, with “hAMYR3” for “hCTR”, “cAMP.” for “CAMP.”, “hAMYR3.” for “hCTR.”
as §2, with “5,622,839). The cell line was further transfected with human receptor modifying protein 3 (RAMP3) using standard methods. This turns the human calcitonin receptor into a human amylin-3(a) receptor.” for “5,622,839).”
as §3, with “hAMYR3/CRE-Luc” for “hCTR/CRE-Luc”, “10131-027), 0.4 mg/mL Hygromycin (Invitrogen, 10687010)” for “10131-027)”
as §4
as §5, with “hAMYR3/CRE-Luc” for “hCTR/CRE-Luc”

| EC50 [1] | EC50 [2] | SMILES |
| --- | --- | --- |
| 1.3 pM | – | CC[C@H](C)[C@H](NC(=O)[C@@H]1CCCN1C(=O)CNC(=O)[C@H](Cc1ccccc1)NC(=O)[C@H](CC(N)=O)NC(=O)[C@H](CC(=O)O)NC(=O)[C@H](CO)NC(=O)[C@H](CO)NC(=O)[C@H](Cc1c[nH]cn1)NC(=O)[C@H](Cc1c[nH]cn1)NC(=O)[C@H](CC(C)C)NC(=O)[C@H](Cc1ccccc1)NC(=O)[C@H](CCC(=O)O)NC(=O)[C@H](C)NC(=O)[C@H](CC(C)C)NC(=O)[C@H](CCCNC(=N)N)NC(=O)[C@H](CCC(N)=O)NC(=O)[C@@H](NC(=O)[C@H](CCC(N)=O)NC(=O)[C@H](C)NC(=O)[C@@H](NC(=O)[C@H](CO)NC(=O)[C@H](CC(C)C)NC(=O)[C@H](Cc1c[nH]cn1)NC(=O)[C@H](CO)NC(=O)[C@H](C)NC(=O)CC[C@H](NC(=O)CCCCCCCCCCCCCCCCCCC(=O)O)C(=O)O)[C@@H](C)O)[C@@H](C)O)C(=O)N[C@@H](CC(C)C)C(=O)N1CCC[C@H]1C(=O)N1CCC[C@H]1C(=O)N[C@H](C(=O)N[C@@H](CC(=O)O)C(=O)N[C@H](C(=O)NCC(=O)N[C@@H](CO)C(=O)N[C@@H](CC(N)=O)C(=O)N[C@H](C(=O)N1CCC[C@H]1C(N)=O)[C@@H](C)O)C(C)C)[C@@H](C)O [Compound 3, N^1-[(4S)-4-carboxy-4-(19-carboxynonadecanoylamino)butanoyl]-[Ala1,Ser2,His3,Leu4,Ser5,Ala7,Gln8,Glu14,His17,Asp21,Pro25,Pro28,Pro29,Asp31,Pro37]-human amylin] ({C20 diacid-γGlu}-ASHLSTAQTQRLAEFLHHSSDNFGPILPPTDVGSNTP-NH2) |
| 1.49 pM | 1.09 pM | CC[C@H](C)[C@H](NC(=O)[C@@H]1CCCN1C(=O)CNC(=O)[C@H](Cc1ccccc1)NC(=O)[C@H](Cc1c[nH]cn1)NC(=O)[C@H](Cc1c[nH]cn1)NC(=O)[C@H](CC(C)C)NC(=O)[C@H](Cc1ccccc1)NC(=O)[C@H](CCC(=O)O)NC(=O)[C@H](C)NC(=O)[C@H](CC(C)C)NC(=O)[C@H](CCCNC(=N)N)NC(=O)[C@H](C)NC(=O)[C@@H](NC(=O)[C@H](CCC(N)=O)NC(=O)[C@H](C)NC(=O)[C@@H](NC(=O)[C@H](CO)NC(=O)[C@H](CC(C)C)NC(=O)[C@H](Cc1c[nH]cn1)NC(=O)[C@H](CO)NC(=O)[C@H](C)NC(=O)CC[C@H](NC(=O)CCCCCCCCCCCCCCCCCCC(=O)O)C(=O)O)[C@@H](C)O)[C@@H](C)O)C(=O)N[C@@H](CC(C)C)C(=O)N1CCC[C@H]1C(=O)N1CCC[C@H]1C(=O)N[C@H](C(=O)N[C@@H](CC(=O)O)C(=O)N[C@H](C(=O)NCC(=O)N[C@@H](CO)C(=O)N[C@@H](CCC(=O)O)C(=O)N[C@H](C(=O)N1CCC[C@H]1C(N)=O)[C@@H](C)O)C(C)C)[C@@H](C)O [Compound 5, N^1-[(4S)-4-carboxy-4-(19-carboxynonadecanoylamino)butanoyl]-[Ala1,Ser2,His3,Leu4,Ser5,Ala7,Gln8,Ala10,Glu14,His17,Pro25,Pro28,Pro29,Asp31,Glu35,Pro37],des-(19-22)-human amylin] ({C20 diacid-γGlu}-ASHLSTAQTARLAEFLHHFGPILPPTDVGSETP-NH2) |
| 1.25 pM | – | CC[C@H](C)[C@H](NC(=O)[C@H](C)NC(=O)CNC(=O)[C@H](Cc1ccccc1)NC(=O)[C@@H]1CCCN1C(=O)[C@H](CC(=O)O)NC(=O)[C@H](CO)NC(=O)[C@H](CO)NC(=O)[C@H](Cc1c[nH]cn1)NC(=O)[C@H](Cc1c[nH]cn1)NC(=O)[C@H](CC(C)C)NC(=O)[C@H](Cc1ccccc1)NC(=O)[C@H](CCC(=O)O)NC(=O)[C@H](C)NC(=O)[C@H](CC(C)C)NC(=O)[C@H](CCCNC(=N)N)NC(=O)[C@H](CCC(N)=O)NC(=O)[C@@H](NC(=O)[C@H](CCC(N)=O)NC(=O)[C@H](C)NC(=O)[C@@H](NC(=O)[C@H](CO)NC(=O)[C@H](CC(C)C)NC(=O)[C@H](Cc1c[nH]cn1)NC(=O)[C@H](CO)NC(=O)[C@H](C)NC(=O)CC[C@H](NC(=O)CCCCCCCCCCCCCCCCCCC(=O)O)C(=O)O)[C@@H](C)O)[C@@H](C)O)C(=O)N1CCC[C@H]1C(=O)N[C@@H](CO)C(=O)N[C@@H](CO)C(=O)N[C@H](C(=O)N[C@@H](CC(=O)O)C(=O)N[C@H](C(=O)NCC(=O)N1CCC[C@H]1C(=O)N[C@@H](CC(=O)O)C(=O)N[C@H](C(=O)N1CCC[C@H]1C(N)=O)[C@@H](C)O)C(C)C)[C@@H](C)O [Compound 6, N^1-[(4S)-4-carboxy-4-(19-carboxynonadecanoylamino)butanoyl]-[Ala1,Ser2,His3,Leu4,Ser5,Ala7,Gln8,Glu14,His17,Asp21,Pro22,Pro27,Asp31,Pro34,Asp35,Pro37]-human amylin] ({C20 diacid-γGlu}-ASHLSTAQTQRLAEFLHHSSDPFGAIPSSTDVGPDTP-NH2) |
